Laboratory results reported in US20220184081A1, “ANTIPRURITIC AGENT USING PAC1 RECEPTOR ANTAGONIST” (KAGOSHIMA UNIVERSITY, priority 2019, published 2022).

Legend:
[1] = biological target: T1, mouse PAC1 receptor (Mus musculus, UniProt P70205); assay: CREB phosphorylation by PACAP stimulus, Western blot, PAC1/CHO cells; assay type: cell-based
T1 construct: expressed in transfected cells; host or cells: CHO cells
T1 sequence (P70205 21-496): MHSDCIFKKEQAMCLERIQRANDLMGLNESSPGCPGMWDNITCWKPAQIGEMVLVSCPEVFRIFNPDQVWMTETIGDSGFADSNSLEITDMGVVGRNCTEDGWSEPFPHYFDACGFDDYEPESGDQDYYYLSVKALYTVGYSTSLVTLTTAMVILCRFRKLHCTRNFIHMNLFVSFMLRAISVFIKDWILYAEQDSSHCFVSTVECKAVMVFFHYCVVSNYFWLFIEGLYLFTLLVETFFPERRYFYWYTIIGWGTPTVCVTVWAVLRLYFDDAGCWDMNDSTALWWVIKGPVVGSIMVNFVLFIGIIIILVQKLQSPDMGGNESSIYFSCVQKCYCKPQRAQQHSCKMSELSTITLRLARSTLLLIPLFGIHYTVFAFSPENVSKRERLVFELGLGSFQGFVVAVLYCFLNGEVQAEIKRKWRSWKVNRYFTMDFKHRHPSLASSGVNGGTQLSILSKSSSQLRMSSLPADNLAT
Experimental: The effect of each compound on the phosphorylation of CREB (cAMP-responsive element-binding protein) produced by a PACAP stimulus was examined by Western blot analysis using an anti-phosphorylated CREB (pCREB) antibody with a mouse PAC1 receptor-expressing CHO cells (PAC1/CHO cells) and a mouse VPAC1 receptor-expressing CHO cells (VPAC1/CHO cells).
Specifically, treatment with a compound (PA-8, compound 2j and compound 2o) at 10 pM to 10 nM or a solvent therefor, DMSO (VEH: 0.1% DMSO-containing phosphate buffer solution) was performed for 30 minutes, 1 nM PACAP was then added, and protein was recovered within 30 minutes after a PACAP stimulus.
The effect of each compound on the phosphorylation of CREB (cAMP-responsive element-binding protein) produced by a PACAP stimulus was examined by Western blot analysis using an anti-phosphorylated CREB (pCREB) antibody with a mouse PAC1 receptor-expressing CHO cells (PAC1/CHO cells).

[2] = test system: Compound 48/80-induced itch behavior in mice; assay: Itch behavior induced by Compound 48/80 intradermal administration; assay type: in vivo, mouse; conditions: intrathecal pre-administration (i.t., 10 minutes before i.d.), 1 nmol; Compound 48/80 100 μg/10 μL; FIG. 11
Experimental: Compound 48/80 (100 μg/10 μL) was intradermally injected into the waist of each mouse (intradermal injection, i.d.). The reaction of biting, licking or scratching the injected site was defined as itch behavior, and the behavioral time was counted every 5 minutes. […] DMSO (10% solution, dissolved in normal saline) is a solvent for PA-8 or PA-9.

[3] = test system: PACAP-induced itch behavior in mice; assay: Itch behavior induced by PACAP intradermal administration; assay type: in vivo, mouse; conditions: simultaneous intradermal administration with PACAP, 0.01 to 1 nmol; FIG. 7A, 8, 9
Source text: SLN indicates intradermal administration of normal saline. DMSO (10% solution, dissolved in normal saline) is a solvent for PA-8.
SLN indicates intradermal administration of normal saline. VEH (10% DMSO solution, dissolved in normal saline) is a solvent for PA-8 and the compound 2o.
SLN indicates intradermal administration of normal saline. VEH (10% DMSO solution, dissolved in normal saline) is a solvent for PA-9 and the compound 3d.

[4] = test system: dry skin itch mouse model; assay: Dry skin itch mouse model (AEW treatment); assay type: in vivo, ICR mice; conditions: oral PA-8 3, 10 or 30 mg/kg; observed 1 hour from 30 minutes after administration; FIG. 3
Experimental: The present test was carried out with reference to the method of Miyamoto et al. that is a test system published as a method for evaluating itch in animals (Miyamoto T., Nojima H., Shinkado T., et al.: Itch-associated response induced by experimental dry skin in mice, Jpn. J. Phamacol., 88, 285-292, 2002).
Five-week-old ICR mice (40 mice) were each placed in a cage, and were then conditioned for 1 week. Thereafter, three days before initiation of the test, the rostral back of each mouse was shaved (treatment method A). The thus shaved 40 mice were divided into 5 groups (8 mice/group), namely, into a 3 mg/kg PA-8 oral (p.o.) administration group, a 10 mg/kg PA-8 oral (p.o.) administration group, a 30 mg/kg PA-8 oral (p.o.) administration group, a comparative group, and a control group.
In the PA-8 administration groups, the mice, which had undergone a shaving treatment (treatment method A), were subjected to ether anesthesia. Thereafter, a cotton (2×2 cm) impregnated with a mixed solution of acetone (A): diethyl ether (E) (1:1) was applied to the rostral back of each mouse for 15 seconds, and then, a cotton impregnated with ion exchange water (W) was applied thereto for 30 seconds [hereinafter, a series of treatments are abbreviated as an AEW treatment (treatment method B)]. The AEW treatment was carried out twice a day, with intervals of 8 hours, for 5 days. […]

Q: With C=CCOc1ccc(C2CC(=O)Nc3nc(N)[nH]c(=O)c32)cc1OC (centres unmarked) [PA-8] as the molecule, how does the “CREB phosphorylation by PACAP (1 nM)” value ([1]; PAC1/CHO cells, compound 10 pM to 10 nM for 30 minutes before PACAP, FIG. 4A, 4C, 4D, 5) read?
A: suppressed CREB phosphorylation

Q: What about the “receptor selectivity (PAC1 versus VPAC1)” value ([1]; concluded from PAC1/CHO and VPAC1/CHO pCREB data) of the same molecule?
A: PAC1 receptor selective antagonist

Q: And the “Compound 48/80-induced itch behavior” value [2]?
A: almost completely suppressed

Q: What about the “biting, licking or scratching behavior induced by PACAP (100 pmol) intradermal administration” value [3] of the same molecule?
A: suppressed in a dose-dependent manner

Q: What about the “scratching behavior induced by the AEW treatment (time spent in scratching)” value [4] of the same molecule?
A: significantly suppressed
